Reference: patent publication US20240197743A1, “WEE1 COMPOUND FOR TREATING UTERINE SEROUS CARCINOMA” (Recurium IP Holdings, LLC, priority 2021, published 2024)

Assays:
[1] = test system: subjects with uterine serous carcinoma (USC); experiment: ZN-c3-001 (NCT04158336) open label, multicenter, Phase I dose escalation and expansion study; subjects with USC at doses ≥300 mg QD; assay type: in vivo, human; details: for Spleen: baseline 21 mm; for Peritoneum: baseline 17.8 mm
Protocol: ZN-c3-001 (NCT04158336) is an open label, multicenter, Phase I dose escalation and expansion study evaluating the safety and clinical activity of ZN-c3 in subjects with advanced or metastatic solid tumors, refractory to standard therapy or for whom no standard therapy is available. Oral, daily ZN-c3 dosing was escalated from 25 mg to 450 mg once daily (QD), with a recommended phase 2 dose of 300 mg QD. Here we report preliminary safety and efficacy results for subjects with USC who received ZN-c3 at doses ≥300 mg QD.

[2] = test system: multiple cell lines and xenograft models; experiment: in vitro antitumor activity in multiple cell lines and xenograft models; assay type: cell-based
[3] = subject #1, Follow-up 1 (February 2021)
[4] = subject #1, Follow-up 2 (April 2021)
[5] = subject #1, Follow-up 3 (June 2021)
[6] = subject #2, Follow-up 1 (March 2021)
[7] = subject #2, Follow-up 2 (April 2021)
[8] = subject #2, Follow-up 2 (April 2021), baseline 15 mm
[9] = subject #2, Follow-up 3 (June 2021)
[10] = subject #2, Follow-up 3 (June 2021), baseline 15 mm
[11] = subject #2, Follow-up 4 (July 2021)
[12] = subject #2, Follow-up 4 (July 2021), baseline 15 mm
[13] = subject #2, Follow-up 5 (August 2021)
[14] = subject #2, Follow-up 5 (August 2021), baseline 15 mm
[15] = subject #3, Follow-up 1 (May 2021)
[16] = subject #3, Follow-up 2 (July 2021)
[17] = subject #3, Follow-up 3 (August 2021)
[18] = subject #3, Follow-up 4 (September 2021)
[19] = subject #3, Follow-up 5 (November 2021)

`C=CCn1c(=O)c2cnc(Nc3ccc(N4CCN(C)CC4)cc3)nc2n1-c1ccc2c(n1)[C@@](O)(CC)CC2` [ZN-c3, (R)-2-allyl-1-(7-ethyl-7-hydroxy-6,7-dihydro-5H-cyclopenta[b]pyridin-2-yl)-6-((4-(4-methylpiperazin-1-yl)phenyl)amino)-1,2-dihydro-3H-pyrazolo[3,4-d]pyrimidin-3-one] was tested, and the “progressive disease as best overall response” value ([1]; 1 of 11 evaluable USC subjects, ≥300 mg QD) was 9.1%, the “confirmed partial response as best overall response” value ([1]; 3 of 11 evaluable USC subjects, ≥300 mg QD) was 27.3% and the “stable disease as best overall response” value ([1]; 7 of 11 evaluable USC subjects, ≥300 mg QD) was 63.6%. The “Disease control rate (complete response, partial response, and stable disease)” value ([1]; 11 evaluable USC subjects, ≥300 mg QD) was 90.9%, the “Grade ≥3 TRAEs occurring in ≥2 subjects” value ([1]; 14 USC subjects, ≥300 mg QD) was “anemia and thrombocytopenia” and the “TRAEs grades 1-4 occurring in ≥3 subjects, by decreasing frequency” value ([1]; 14 USC subjects, ≥300 mg QD) was “nausea, vomiting, diarrhea, fatigue, decreased appetite, dehydration, and anemia”. The “subjects reporting at least one treatment-related adverse event (TRAE)” value ([1]; 14 USC subjects, ≥300 mg QD) was 12 of 14, the “subjects with each Grade ≥3 hematologic event (anemia, thrombocytopenia)” value ([1]; 14 USC subjects, ≥300 mg QD) was 2 subjects each and the safety and tolerability ([1]; single agent, oral doses ≥300 mg QD) was “safe and well-tolerated”. The “peritoneum imaging result (FIG. 1)” value ([1]; subject #1, 2nd restaging (April 2021) vs baseline (November 2020)) was “confirmed partial response”, the best response ([1]; subject #1, start 350 mg QD) was “Confirmed PR” and the reduction overall ([1]; subject #1, start 350 mg QD) was 49%. For the same molecule, the “time on the study drug until radiologic disease progression” value ([1]; subject #1, start 350 mg QD) was 199 days, the “Target Lesions” value ([1]; subject #1, start 350 mg QD, Follow-up 1 (February 2021), baseline 24 mm) was 15 mm and the “Tumor marker CA-125, minimum” value ([1]; subject #1, start 350 mg QD, after ~3 months of treatment, baseline 36 U/mL) was 12 U/mL. For the same molecule, the “New Lesions” value [1, 3] was “No”, the “Percentage of overall tumor reduction” value [1, 3] was −48.9% and the “Tumor Response by RECIST 1.1” value [1, 3] was “Partial”. For the same molecule, the Spleen [1, 3] was 8 mm, the “Target Lesions Sum” value ([1]; subject #1, Follow-up 1 (February 2021), baseline 45 mm) was 23 mm and the “New Lesions” value [1, 4] was “No”. For the same molecule, the “Percentage of overall tumor reduction” value [1, 4] was −48.9%, the “Tumor Response by RECIST 1.1” value [1, 4] was “Partial” and the Spleen [1, 4] was 7 mm. For the same molecule, the “Target Lesions” value ([1]; subject #1, Follow-up 2 (April 2021), baseline 24 mm) was 16 mm, the “Target Lesions Sum” value ([1]; subject #1, Follow-up 2 (April 2021), baseline 45 mm) was 23 mm and the “New Lesions” value [1, 5] was “No”. The “Percentage of overall tumor reduction” value [1, 5] was −48.9%, the “Tumor Response by RECIST 1.1” value [1, 5] was “Progressive” and the Spleen [1, 5] was 7 mm. The “Target Lesions” value ([1]; subject #1, Follow-up 3 (June 2021), baseline 24 mm) was 16 mm, the “Target Lesions Sum” value ([1]; subject #1, Follow-up 3 (June 2021), baseline 45 mm) was 23 mm and the “peritoneum imaging result (FIG. 2)” value ([1]; subject #2, 1st restaging (March 2021) vs baseline (January 2021)) was “partial response”. For the same molecule, the best response ([1]; subject #2, start 300 mg QD) was “Confirmed PR”, the reduction overall ([1]; subject #2, start 300 mg QD) was 43% and the “time on the study drug until radiologic disease progression” value ([1]; subject #2, start 300 mg QD) was 230 days. For the same molecule, the “Target Lesions” value ([1]; subject #2, start 300 mg QD, Follow-up 1 (March 2021), baseline 15 mm) was 06 mm, the “Tumor marker CA-125” value ([1]; subject #2, start 300 mg QD, after 2 months of treatment, baseline 440 U/mL) was < 50 U/mL and the “New Lesions” value [1, 6] was “No”. For the same molecule, the “Percentage of overall tumor reduction” value [1, 6] was −43%, the “Tumor Response by RECIST 1.1” value [1, 6] was “Partial Response” and the “Lymph Node” value ([1]; subject #2, Follow-up 1 (March 2021), baseline 15 mm) was 11 mm. For the same molecule, the “Target Lesions Sum” value ([1]; subject #2, Follow-up 1 (March 2021), baseline 30 mm) was 17 mm, the “New Lesions” value [1, 7] was “No” and the “Percentage of overall tumor reduction” value [1, 7] was −43%. For the same molecule, the “Tumor Response by RECIST 1.1” value [1, 7] was “Partial Response”, the “Lymph Node” value [1, 8] was 10 mm and the “Target Lesions” value [1, 8] was 07 mm. The “Target Lesions Sum” value ([1]; subject #2, Follow-up 2 (April 2021), baseline 30 mm) was 17 mm, the “New Lesions” value [1, 9] was “No” and the “Percentage of overall tumor reduction, from baseline” value [1, 9] was −40% from baseline. For the same molecule, the “Percentage of overall tumor reduction, from nadir” value [1, 9] was “+6% from nadir”, the “Tumor Response by RECIST 1.1” value [1, 9] was “Partial Response” and the “Lymph Node” value [1, 10] was 10 mm. The “Target Lesions” value [1, 10] was 8 mm, the “Target Lesions Sum” value ([1]; subject #2, Follow-up 3 (June 2021), baseline 30 mm) was 18 mm and the “New Lesions” value [1, 11] was “No”. The “Percentage of overall tumor reduction, from baseline” value [1, 11] was −30% from baseline, the “Percentage of overall tumor reduction, from nadir” value [1, 11] was “+24% from nadir” and the “Tumor Response by RECIST 1.1” value [1, 11] was “Partial Response”. The “Lymph Node” value [1, 12] was 10 mm, the “Target Lesions” value [1, 12] was 11 mm and the “Target Lesions Sum” value ([1]; subject #2, Follow-up 4 (July 2021), baseline 30 mm) was 21 mm. The “New Lesions” value [1, 13] was “No”, the “Percentage of overall tumor reduction, from baseline” value [1, 13] was −30% from baseline and the “Percentage of overall tumor reduction, from nadir” value [1, 13] was “+24% from nadir”. The “Tumor Response by RECIST 1.1” value [1, 13] was “Progressive Disease”, the “Lymph Node” value [1, 14] was 10 mm and the “Target Lesions” value [1, 14] was 11 mm. For the same molecule, the “Target Lesions Sum” value ([1]; subject #2, Follow-up 5 (August 2021), baseline 30 mm) was 21 mm, the “peritoneum imaging result (FIG. 3)” value ([1]; subject #3, 5th restaging (November 2021) vs baseline (April 2021)) was “complete response” and the best response ([1]; subject #3, start 300 mg QD) was “Unconfirmed Complete Response”. The reduction overall ([1]; subject #3, start 300 mg QD) was 100%, the “time on the study drug until clinical disease progression” value ([1]; subject #3, start 300 mg QD) was 252 days and the “Target Lesions” value ([1]; subject #3, start 300 mg QD, Follow-up 1 (May 2021), baseline 36.6 mm) was 21.7 mm. For the same molecule, the “New Lesions” value [1, 15] was “No”, the “Percentage of overall tumor reduction” value [1, 15] was −32% and the “Tumor Response by RECIST 1.1” value [1, 15] was “Partial Response”. For the same molecule, the Peritoneum [1, 15] was 15.3 mm, the “Target Lesions Sum” value ([1]; subject #3, Follow-up 1 (May 2021), baseline 54.4 mm) was 37 mm and the “New Lesions” value [1, 16] was “No”. The “Percentage of overall tumor reduction” value [1, 16] was −67.8%, the “Tumor Response by RECIST 1.1” value [1, 16] was “Partial Response” and the Peritoneum ([1]; subject #3, Follow-up 2 (July 2021), (too small)) was 5 mm (too small). For the same molecule, the “Target Lesions” value ([1]; subject #3, Follow-up 2 (July 2021), baseline 36.6 mm) was 12.5 mm, the “Target Lesions Sum” value ([1]; subject #3, Follow-up 2 (July 2021), baseline 54.4 mm) was 17.5 mm and the “New Lesions” value [1, 17] was “No”. The “Percentage of overall tumor reduction” value [1, 17] was −76.5%, the “Tumor Response by RECIST 1.1” value [1, 17] was “Partial Response” and the Peritoneum ([1]; subject #3, Follow-up 3 (August 2021), (too small)) was 5 mm (too small). For the same molecule, the “Target Lesions” value ([1]; subject #3, Follow-up 3 (August 2021), baseline 36.6 mm) was 7.8 mm, the “Target Lesions Sum” value ([1]; subject #3, Follow-up 3 (August 2021), baseline 54.4 mm) was 12.8 mm and the “New Lesions” value [1, 18] was “No”. For the same molecule, the “Percentage of overall tumor reduction” value [1, 18] was −82%, the “Tumor Response by RECIST 1.1” value [1, 18] was “Partial Response” and the Peritoneum ([1]; subject #3, Follow-up 4 (September 2021), (too small)) was 5 mm (too small). For the same molecule, the “Target Lesions” value ([1]; subject #3, Follow-up 4 (September 2021), baseline 36.6 mm, (too small)) was 5 mm (too small), the “Target Lesions Sum” value ([1]; subject #3, Follow-up 4 (September 2021), baseline 54.4 mm) was 10 mm and the “New Lesions” value [1, 19] was “No”. The “Percentage of overall tumor reduction” value [1, 19] was −100%, the “Tumor Response by RECIST 1.1” value [1, 19] was “Complete Response” and the Peritoneum [1, 19] was 0 mm. For the same molecule, the “Target Lesions” value ([1]; subject #3, Follow-up 5 (November 2021), baseline 36.6 mm) was 0 mm, the “Target Lesions Sum” value ([1]; subject #3, Follow-up 5 (November 2021), baseline 54.4 mm) was 0 mm and the clinical activity ([1]; subjects with recurrent or advanced USC, Examples 1-3) was “demonstrated clinical activity”. The antitumor activity [2] was “significant in vitro antitumor activity”.
